# Test results published in patent publication US12465582B2, “(S)-2-amino-6-((3-aminopropyl)amino)hexanoic acid (APL) for use in the treatment of non-alcoholic steatohepatitis (NASH), liver inflammation, hepatocellular ballooning, liver fibrosis and steatosis” (Temple University—Of The Commonwealth System Of Higher …, priority 2020, dated 2025).
# Columns and labels:
# Format in all cases: in vivo
# [1] = tested on: C57BL/6J mice fed AMLN diet changed to HFD; experiment: NAS and liver fibrosis in AMLN diet mouse model of NASH; conditions: APL p.o. b.i.d., 16 weeks
# Experimental: FIG. 12, comprising FIGS. 12A and 12B, depicts data regarding NAS and fibrosis in an AMLN diet mouse model of NASH. C57BL/6J mice were fed either CHOW or a modified AMLN diet that was changed to HFD after twenty (20) weeks. At seek fifty (50) mice were treated with vehicle or APL (p.o.b.i.d.). The APL dosage 25, 50, or 100 mg/kg, oral administration (p.o.) in two dosages per day (b.i.d.) (total dosage of 50, 100, or 200 mg/kg/day). After sixteen (16) weeks of treatment with vehicle or APL biopsies were collected and stained with hematoxylin & eosin (H&E) and evaluated for steatosis, inflammation, and hepatocyte ballooning. FIG. 12A depicts the reduction in NAS the treated group as compared to the positive control. […] FIG. 12B depicts the reduction in liver fibrosis in the treated group as compared to the positive control.
# C57BL/6 mice were maintained in cages and had free access to standard rodent chow (Cat #5053, obtained from Labdiet, Saint Louis, MO) and water. C57BL/6J mice were fed either CHOW (negative control) or amylin liver NASH (AMLN) diet (58% high fat, 25% carbohydrate, 2% cholesterol) for twenty (20) weeks. Beginning at twenty (20) weeks, animals fed AMLN diet were changed to HFD. At fifty (50) weeks, animals were treated twice daily (b.i.d.) with oral administration (p.o.) of either vehicle (positive control) or APL (treated).
# [2] = tested on: C57BL/6J mice fed high fat/high fructose diet (HFD); experiment: Glucose tolerance test (GTT) in diet-induced obesity (HFD) mouse model of NASH; conditions: APL 200 mg/kg/day p.o. in two doses, 130 days
# Text: C57BL/6J mice 5 week old male mice obtained from Jackson Laboratories, Bar Harbor, ME, USA) were maintained in cages (5 mice per cage) and had free access to standard rodent chow (Cat #5053, obtained from Labdiet, Saint Louis, MO) and water (filtered and packed using a Hydrapak system) for 5 days until the start of the experiment. The animals were then randomly assigned to five groups (n=5 for each group) receiving different diets and treatments as shown in Table A for 130 days. Each treatment was administered p.o.b.i.d. The APL dosage administered to each animal was 200 milligrams per kilogram of body weight divided in two dosages per day, via oral gavage and the pioglitazone dosage received each animal was 20 milligrams per kilogram of body weight divided in two dosages per day, via oral gavage. “HFD” is high fat/high fructose diet, which contains 58% fat, 25% carbohydrate and 17% protein. HFD was obtained from Research Diets, Inc. “Chow” refers to standard rodent chow (Cat #5053, obtained from Labdiet, Saint Louis, MO). Animals were fed ad libitum, except during the GTT experiments.
# At the conclusion of the experimental time period (78 days for rats and 130 days for mice), the animals were subjected to a glucose tolerance test (GTT) as follows. Animals were fasted for 5 hours, weights, and their tails were clipped to measure fasting blood glucose levels. Immediately after, glucose (2 mg/g body weight) was administered orally. Glucose levels were measured at 0, 15, 30, 45, 60, and 120 minutes after glucose administration. Glucose was measured using the AlphaTRAK 2 glucometer from Abbott
# [3] = tested on: C57BL/6J mice fed high fat/high fructose diet (HFD); experiment: Hepatic steatosis: liver histology (H&E, BODIPY/DAPI) in HFD mouse NASH model
# Text: As in Example 1, C57BL/6 mice (same sample of mice as in Example 1) were maintained in cages (5 mice per cage) and had free access to standard rodent chow (Cat #5053, obtained from Labdiet, Saint Louis, MO) and water (filtered and packed using a Hydrapak system) for 5 days. […] The APL dose was 200 milligram per kilogram (mg/kg) per day, administered as two 100 milligram per kilogram (mg/kg) body weight APL (p.o.b.i.d.). Animals were fed ad libitum. The animals were humanely euthanized, and the livers were removed for histological analysis. Liver samples in formalin were allowed to fix for 48 hours, and processed into FFPE blocks after fixations. Slides were stained with hematoxylin and eosin (H&E) and to immunostaining with BODIPY and DAPI to quantitate fat deposition and nuclei number using confocal microscopy. See, e.g., Rico et al, 2007, J Cell Physiol, 211(2):504-12; and Daemen et al, 2016, Mol Metab, 5(3) 153-63. The data are depicted in FIGS. 3, 4, and 5
# FIG. 5D is the plot of fat deposition assessed using confocal microscopy. Measurements were made in 20×-magnification fields. More than 21 fields from three different animals from each group were analyzed: Chow-vehicle (#fields=26), HFD-Vehicle (#fields=25) and HFD-APL (#fields=23). Indirect measurement using imageJ (Schneider et al., 2012, Nature Methods 9(7): 671-675) was used to calculate fat deposition. Fat deposition was increased 3-fold in HFD/vehicle-treated mice compared with CHOW control mice and with HFD/APL-treated mice (***p<0.001).
# [4] = tested on: Zucker (fa/fa) obese rats; experiment: Hepatic fibrosis: H&E and Mason trichrome liver histology in Zucker rat NASH model; conditions: 100 mg/kg APL p.o. b.i.d., 78 days
# Text: Zucker (fa/fa) obese rats and Zucker (Fa/fa) lean rats (7-week old male animals obtained from Charles Rivers Laboratories, Wilmington, MA, USA) were maintained in individual cages (1 rat per cage to encourage sedentary activity) and had free access to standard rodent chow (Cat #5053 obtained from Labdiet, Saint Louis, MO) and water for (filtered and packed using a Hydrapak system) for 7 days until the start of the experiment. Zucker (fa/fa) obese rats were randomly assigned to two groups: 1) vehicle p.o.b.i.d. (oral administration, twice a day) for 78 days; and 2) 100 milligram per kilogram (mg/kg) body weight APL (p.o.b.i.d.) for 78 days. Zucker (Fa/fa) lean rats served as control. The APL dosage was 100 mg/kg/day. Animals were fed ad libitum. The animals were humanely euthanized, and the livers were removed for histological analysis. Liver samples in formalin were allowed to fix for 48 hours, and processed into FFPE blocks after fixations. Slides were stained with hematoxylin and eosin (H&E) and Mason trichrome staining.
# [5] = HFD mice, APL 200 mg/kg/day p.o. b.i.d., 20 weeks
smiles,measurement,setting,value
"NCCCNCCCC[C@H](N)C(=O)O [APL, (S)-2-amino-6-((3-aminopropyl)amino)hexanoic acid]",liver fibrosis vs positive control (FIG. 12B),[1]; ****p<0.0001,significant reduction
same,NAS vs positive control (FIG. 12A),[1]; ***p<0.001,significant reduction
same,AUC of GTT of HFD/vehicle mice compared to mice fed HFD and treated with APL,[2]; **p<0.01,significantly higher
same,"blood glucose levels in GTT, treated vs negative control (chow vehicle)","[2]; HFD mice, any time point 0-120 min",no significant statistical difference
same,"blood glucose levels in GTT, treated vs positive control (HFD vehicle)","[2]; HFD mice, at 15-min (p<0.0001), 60-min (p<0.05), 120-min (p<0.001)",significant statistical difference
same,number of nuclei (DAPI) of HFD/vehicle mice compared to mice fed HFD and treated with APL,"[3]; APL 200 mg/kg/day p.o. b.i.d., ***p<0.001",statistically significant fewer
same,"fat deposition, increase in HFD/vehicle-treated mice compared with HFD/APL-treated mice","[3]; APL 200 mg/kg/day p.o. b.i.d., confocal microscopy, ImageJ, ***p<0.001",3 fold
same,hepatocyte ballooning induced by HFD in H&E liver sections (FIG. 3),"[3]; HFD mice treated with APL for 131 days, 20x magnification",minimal or no ballooning
same,"anatomical structure of the liver, H&E (FIG. 5A)","[3]; HFD mice, APL 200 mg/kg/day p.o. b.i.d.",retained the normal anatomy of the liver
same,"hepatocyte fat accumulation, inflammatory infiltration and hepatocyte ballooning in H&E liver sections","[3]; HFD mice, APL 200 mg/kg/day p.o. b.i.d., 18 weeks, vs HFD vehicle",less severe
same,"fat deposition, treated group vs negative control (chow vehicle)",[3]; [5],No significant statistical difference
same,"number of nuclei (hepatocytes), treated group vs negative control (chow vehicle)",[3]; [5],no statistical differences
same,"liver morphology, H&E (FIG. 8A)",[4],preserve the normal morphology of the liver
same,"liver collagen fibers, Mason trichrome blue staining (FIG. 8B/8C)",[4]; vs multiple collagen fibers with vehicle,minimum blue staining
